Reference: patent publication US20250382264A1, “HETEROCYCLE-CONTAINING AMINO ACID COMPOUND AND COMPLEX” (AICHI STEEL CORPORATION, priority 2022, published 2025)

test system: corn variety "Launcher 82"; test: Plant cultivation test (1): hydroponic cultivation of corn, leaf color (SPAD value); type: in vivo; conditions: 3 mL iron material with Fe 100 μM, 3rd day after administration, average of two pots
Experimental: Seeds of corn variety “Launcher 82” were placed on a paper towel wetted with tap water. 8 days after germination, the seedlings were immersed in 45 mL of a hydroponic nutrient solution (a liquid based on the formulation in the Horticultural Experiment Station). 2 days after that, 3 mL of iron materials including various aqueous complex solutions were administered to the seedlings. Then, on the 3rd day after the administration of the iron materials, the leaf color (SPAD value) of corn was measured. This hydroponic cultivation was performed in two pots, and the average value of the SPAD values was calculated. For comparison, an experiment of administering only iron sulfate and an experiment of administering no iron material were also performed.

Molecule	SPAD value Average
O=S(=O)([O-])[O-].[Fe+2] [Fe only, iron sulfate]	9.5

test system: not listed separately; test: Absorbance of aqueous iron complex solution irradiated with ultraviolet rays (253.7 nm); type: physicochemical; conditions: aqueous solution of the Fe complex of the named ligand, Fe 100 μM, pH 5.0, ultraviolet 253.7 nm, 10-mm cell
Experimental: For comparison, absorbance measurement was performed using an aqueous solution of each of an iron complex of ethylenediaminetetraacetic acid (EDTA) (hereinafter, referred to as “Fe-EDTA”), an iron complex of diethylenetriamine-N,N,N',N'',N''-pentaacetic acid (DTPA) (hereinafter, referred to as “Fe-DTPA”), an iron complex of hydroxybenzylethylenediamine (HBED) (hereinafter, referred to as “Fe-HBED”), an iron complex of N,N'-ethylene-bis([…]) (hereinafter, referred to as “Fe-EDDHA”), an iron complex of citric acid, and an iron complex (hereinafter, referred to as “Fe-PDMA”) of a compound represented by the following formula (hereinafter, referred to as “PDMA”). […] Subsequently, a deionized water was added to fill up to 220 mL. This aqueous solution was left to stand at a temperature of 25° C. for 1 hour to yield an aqueous solution of an iron complex having an Fe concentration of 100 μM (5.6 ppm). Thereafter, the absorbance of this aqueous complex solution was measured. […] Subsequently, a deionized water was added to fill up to 220 mL. […] Thereafter, the absorbance of this aqueous complex solution was measured in the same manner as described above (see Table 1). […] Subsequently, about 220 mL of a deionized water was added to the resultant mixture to yield an aqueous complex solution having an Fe concentration of 100 μM (5.6 ppm).

Molecule	Absorbance
O=C(O)[C@@H](O)CCN1CCC[C@H]1C(=O)O [Compound V2]	0.193
N[C@@H](CCN1CCC[C@H]1C(=O)O)C(=O)O [Compound V3]	0.190
CC(=O)N[C@@H](CCN1CCC[C@H]1C(=O)O)C(=O)O [Compound V4]	0.144
O=C(CO)N[C@@H](CCN1CCC[C@H]1C(=O)O)C(=O)O [Compound V5]	0.350
O=C(O)CN[C@@H](CCN1CCC[C@H]1C(=O)O)C(=O)O [Compound V6]	0.378
CN(CCC(=O)O)[C@@H](CCN1CCC[C@H]1C(=O)O)C(=O)O [Compound V7]	0.354
N[C@@H](CCN1CC[C@H]1C(=O)O)C(=O)O [Compound V8]	0.195
O=C(O)[C@@H](O)CCN1CC[C@H]1C(=O)O [Compound V9]	0.332
O=C([O-])CN(CCN(CC(=O)[O-])CC(=O)[O-])CC(=O)[O-].[Fe+3] [Fe-EDTA, iron complex of ethylenediaminetetraacetic acid]	1.452
O=C(O)C(O)CCN[C@@H](CCN1CCC[C@H]1C(=O)O)C(=O)O (stereo partly shown) [Fe-PDMA]	0.644
iron complex of diethylenetriamine-N,N,N′,N″,N″-pentaacetic acid [Fe-DTPA]	1.073
iron complex of hydroxybenzylethylenediamine [Fe-HBED]	0.914
